Positions of bridges follow the written chain, without caps; N, C: chain ends. Residues, ends and D or L forms follow the SMILES beside them.
Assays:
[1] = molecular target: T1, BTLA/HVEM binding on 293T cells expressing human BTLA (Homo sapiens, UniProt Q7Z6A9); assay: BTLA/HVEM interaction cell line assay (HVEM-Fc binding to 293T cells expressing BTLA, flow cytometry); format: cell-based; conditions: 293T cells expressing human BTLA preincubated with peptide 5 mg/mL, 1 h, 4 °C in PBS, then HVEM-Fc 8 μg/mL and AF647 anti-human IgG
T1 construct: Krummenacher, University of Pennsylvania; host or cells: 293T
Protocol: Figure 7 HVEM (14–39) peptide blocks BTLA/HVEM binding. 293T cells expressing human BTLA were incubated with peptides (5 mg/mL) prior to labeling with HVEM-Fc and AF647-conjugated anti-human IgG antibody. The blocking capacity of the HVEM (14–39) peptide was first compared to (A) a scrambled (Ac-[…]-NH2) peptide or (B) to variant peptides (Table S2).
Cells (293T) expressing BTLA (a generous gift from Dr. C. Krummenacher, University of Pennsylvania, USA) were maintained in culture with RPMI 10% FCS supplemented with 0.2 mg/mL hygromycin B. The cells (2 × 10^5) were incubated with HVEM-Fc (at 8 μg/mL in PBS containing 0.5% BSA) for 30 min at 4 °C. The cells were then washed and incubated with goat anti-human Fc conjugated with AF647 for 20 min at 4 °C in PBS containing 0.5% BSA (Jackson ImmunoResearch, #109–606–170). Inhibition of BTLA/HVEM binding by different peptides was assessed after preincubating the cells with different concentrations of the peptide (5, 1, and 0.1 mg/mL) for 1 h at 4 °C in PBS. After washing in PBS, the cells were stained for 20 min at 4 °C with an amine reactive dye (aqua live/dead stain kit, from Life Technologies, L34957) for dead cell exclusion. BTLA expression was controlled by anti-BTLA APC-conjugated antibody (Biolegend, #344510). Maximum inhibition of binding was determined by adding anti-BTLA7.1 antibody (2 μg/mL) for 1 h at 4 °C, before adding HVEM-Fc. Sample acquisition was performed on a Gallios Flow Cytometer (Beckman Coulter), and data were analyzed using FlowJo Software (TreeStar).

[2] = molecular target: HVEM 1-103 (Homo sapiens) (UniProt Q92956); assay: SPR; conditions: cited from earlier work
[3] = molecular target: T2, BTLA protein (Homo sapiens, UniProt Q7Z6A9); assay: SPR analysis of BTLA protein binding to immobilized HVEM (14–39) peptide
T2 construct: purchased Novoprotein C563
Protocol: To analyze the binding properties between BTLA and the HVEM (14–39) peptide, we performed the affinity measurements using SPR. Thus, the peptide extended by five glycine residues at the N-terminus and biotin was first immobilized on a streptavidin matrix-coated sensor chip. The BTLA protein was then injected at different concentrations (0, 1, 3, 5, 10, and 15 µM). […] Moreover, the SPR results reveal that the peptide binds approximately 8 times slower (k1 = 76400), and dissociates 36 times slower (k−1 = 0.00332) than does the HVEM protein (k1 = 620000 and k−1 = 0.12), which agrees with the theoretical results of simulations with crystal-based structure and NMR-based structure of the peptide (Table 1).
Figure 6 SPR analysis of the BTLA protein binding to the HVEM (14–39) peptide. Sensorgrams show the results of SPR analysis conducted on the binding of the indicated concentrations of BTLA protein (C = 0, 1, 3, 5, 10, and 15 μM) in HBS-EP buffer.
Recombinant human BTLA protein was purchased from Novoprotein (company product code: C563). Recombinant human BTLA-Fc, HVEM-Fc and anti-human BTLA (#7.1)-blocking mAb were a generous gift from Prof. D. Olive (Inserm U1068/CNRS U7258, Marseille, France). Anti-HVEM mAb was biotinylated according to the manufacturer’s instructions (Biotin Labeling Kit-NH2, Abnova, #KA0003).
Standard SPR analyses were performed using a Biacore T200 (GE Healthcare) instrument essentially as described in the manufacturer’s manual. BTLA protein binding was studied using the HVEM(14–39) peptide elongated by five glycine residues at the N-terminus and immobilized on a streptavidin matrix-coated Sensor Chip SA (GE Healthcare). The peptide was immobilized on the sensor surface to yield a final value of ~1100 RU. HBS-EP (150 mM NaCl, 10 mM HEPES pH 7.4, 3 mM EDTA, 0.05% Surfactant P20) was used as the running buffer. In all the experiments, the buffer flow was set to 30 µL/min, with all injections at a volume of 120 µL. The sensorchip surface was regenerated with 0.5 M NaCl and 10 mM glycine. The data obtained were analyzed using Biacore T200 Evaluation Software 3.1 (Biacore, GE Healthcare, USA). The results are presented as sensorgrams obtained after subtraction of the background response signal from control experiments with buffer injections.

[4] = system: peripheral blood mononuclear cells (PBMC); format: cell-based, human; conditions: PBMC from 3 healthy donors; peptide 0.1 and 5 mg/ml; 6 and 24 h, 37 °C; trypan blue counting and DAPI flow cytometry
Protocol: (§1) Then, we measured the cell death by counting the cells using trypan blue and by flow cytometry using 4′,6-diamidino-2-phenylindole dihydrochloride (DAPI).
Blood samples were also collected from healthy volunteers through the local Swiss blood bank. Fresh peripheral blood mononuclear cells were purified by density gradient centrifugation (Isopaque-Ficoll) within 2 h after blood sampling. Cells were cryopreserved in RPMI medium 1640 supplemented with 40% FCS and 10% DMSO.
Then, 2 × 10^4 total PBMC per well (96-well plate) was cultured with or without the HVEM (14–39) peptide at 5 or 0.1 mg/mL in RPMI 1640 supplemented with 10% FCS, 1% penicillin-streptomycin, and 25 mM HEPES. After 6 and 24 h at 37 °C, cells were harvested counted with Trypan blue exclusion. Cells were then labeled with DAPI and analyzed by flow cytometry to determine the percentage of cell death. […]
medium at time points (from the bottom) = 0h, 2h, 3h, 6h and 24h (gradient 5-100%B in 60 […]
Figure S6. 293T cells expressing human BTLA were incubated with different concentrations (0.1, 1 and 5 mg/ml) of peptide HVEM(14-39) prior labeling with rhHVEM-Fc and AF647-conjugated anti-human IgG antibody.
Fig. S7. Cytotoxic assay. PBMC from 3 healthy donors were incubated with HVEM(14-39) peptide at 0, 0.1 and 5 mg/ml in culture medium for 6 and 24h. Cells were subsequently counted and labelled with a dead cell marker. […]

[5] = system: 293T cells; assay: Toxicity on 293T cells (data not shown); format: cell-based, human; conditions: 5 mg/mL
Excerpt: as §1

[6] = system: BTLA; conditions: SPR, HVEM protein binding to BTLA; unit not given; cited from earlier work
Excerpt: Table 1 Rate constants: k1, k−1 and KD for the BTLA/HVEM and BTLA/HVEM (14–39) complexes determined using SPR and molecular dynamics simulation. […] SPR provided more accurate data. […] KD and affinity are inversely related, which means that the lower the KD value, the higher the affinity of the molecules. The HVEM (14–39) peptide binds and d ...

[7] = molecular target: T3, Recombinant human BTLA-Fc (human, UniProt Q7Z6A9 31-157); assay: affinity chromatography on a microcolumn, fractions read by MALDI-TOF MS; BTLA-Fc immobilised in a microcolumn; peptide incubated, excess removed, complex dissociated; supernatant, last wash and elution analysed by mass spectrometry; conditions: both partners purified
T3 construct: also called BTLA-Fc protein; immobilized BTLA protein; source: gift from Prof; D. Olive (recombinant)
T3 sequence (looked up): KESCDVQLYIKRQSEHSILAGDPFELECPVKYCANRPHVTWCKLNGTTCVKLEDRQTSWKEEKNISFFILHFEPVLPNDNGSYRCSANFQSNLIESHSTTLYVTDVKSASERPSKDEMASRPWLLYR

T1 sequence (Q7Z6A9 31-289): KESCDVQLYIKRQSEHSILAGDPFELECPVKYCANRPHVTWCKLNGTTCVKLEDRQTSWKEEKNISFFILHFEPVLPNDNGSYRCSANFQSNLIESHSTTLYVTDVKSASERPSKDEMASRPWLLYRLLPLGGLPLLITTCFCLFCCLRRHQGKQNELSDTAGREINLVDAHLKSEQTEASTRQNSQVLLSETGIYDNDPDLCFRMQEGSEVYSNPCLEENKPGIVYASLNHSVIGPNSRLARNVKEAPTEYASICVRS
HVEM 1-103 (Homo sapiens), sequence (Q92956 1-103): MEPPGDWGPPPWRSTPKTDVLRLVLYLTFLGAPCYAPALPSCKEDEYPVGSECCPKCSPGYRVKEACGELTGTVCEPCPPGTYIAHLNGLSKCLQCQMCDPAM

For `CC(=O)N[C@@H](CCC(=O)O)C(=O)N[C@@H](CO)C(=O)N[C@H]1CSSC[C@@H](C(=O)N[C@@H](CO)C(=O)N2CCC[C@H]2C(=O)NCC(=O)N[C@@H](Cc2ccc(O)cc2)C(=O)N[C@@H](CCCNC(=N)N)C(=O)N[C@H](C(=O)N[C@@H](CCCCN)C(=O)N[C@@H](CCC(=O)O)C(=O)N[C@@H](C)C(=O)N[C@H]2CSSC[C@@H](C(=O)N[C@@H](CCC(=O)O)C(=O)N3CCC[C@H]3C(N)=O)NC(=O)[C@H](C(C)C)NC(=O)[C@H]([C@@H](C)O)NC(=O)CNC(=O)[C@H]([C@@H](C)O)NC(=O)[C@H](CC(C)C)NC(=O)[C@H](CCC(=O)O)NC(=O)CNC2=O)C(C)C)NC(=O)[C@H](CCCCN)NC(=O)[C@@H]2CCCN2C1=O` [HVEM (14–39)^C16–C19, ^C29–C37] (Ac-ESCPKCSPGYRVKEACGELTGTVCEP-NH2; disulfide 3-6, 16-24), the “blocking of HVEM-Fc binding to BTLA (geometric fluorescence intensity, GMFI)” value (from here on “blocking of HVEM-Fc binding to BTLA”) [1] was “slight decrease in the blocking capacity”.

In the case of BTLA (from UniProt Q7Z6A9), the Kd [2] is listed as 250 nM.

In the case of “Ac-ESSPKSSPGYRVKEASGELTGTVSEP-NH2 [HVEM (14–39)^C16,19,29,37S]”, the “blocking of HVEM-Fc binding to BTLA” value [1] is reported as “blocking capacity was completely lost”.

For `CC(=O)N[C@@H](CCC(=O)O)C(=O)N[C@@H](CO)C(=O)N[C@H]1CSSC[C@@H](C(=O)N[C@@H](CCC(=O)O)C(=O)N2CCC[C@H]2C(N)=O)NC(=O)[C@H](C(C)C)NC(=O)[C@H]([C@@H](C)O)NC(=O)CNC(=O)[C@H]([C@@H](C)O)NC(=O)[C@H](CC(C)C)NC(=O)[C@H](CCC(=O)O)NC(=O)CNC(=O)[C@@H]2CSSC[C@H](NC(=O)[C@H](CCCCN)NC(=O)[C@@H]3CCCN3C1=O)C(=O)N[C@@H](CO)C(=O)N1CCC[C@H]1C(=O)NCC(=O)N[C@@H](Cc1ccc(O)cc1)C(=O)N[C@@H](CCCNC(=N)N)C(=O)N[C@@H](C(C)C)C(=O)N[C@@H](CCCCN)C(=O)N[C@@H](CCC(=O)O)C(=O)N[C@@H](C)C(=O)N2` [HVEM (14–39)^C16–C37, ^C19–C29] (Ac-ESCPKCSPGYRVKEACGELTGTVCEP-NH2; disulfide 3-24, 6-16), the “blocking of HVEM-Fc binding to BTLA” value [1] was “slight decrease in the blocking capacity”.

Molecule `CC(=O)N[C@@H](CCC(=O)O)C(=O)N[C@@H](CO)C(=O)N[C@H]1CSSC[C@@H]2NC(=O)[C@H](C)NC(=O)[C@H](CCC(=O)O)NC(=O)[C@H](CCCCN)NC(=O)[C@H](C(C)C)NC(=O)[C@H](CCCNC(=N)N)NC(=O)[C@H](Cc3ccc(O)cc3)NC(=O)CNC(=O)[C@@H]3CCCN3C(=O)[C@H](CO)NC(=O)[C@H](CSSC[C@@H](C(=O)N[C@@H](CCC(=O)O)C(=O)N3CCC[C@H]3C(N)=O)NC(=O)[C@H](C(C)C)NC(=O)[C@H]([C@@H](C)O)NC(=O)CNC(=O)[C@H]([C@@H](C)O)NC(=O)[C@H](CC(C)C)NC(=O)[C@H](CCC(=O)O)NC(=O)CNC2=O)NC(=O)[C@H](CCCCN)NC(=O)[C@@H]2CCCN2C1=O` [HVEM (14–39)] (Ac-ESCPKCSPGYRVKEACGELTGTVCEP-NH2; disulfide 3-16, 6-24) has a kon ([3]; SPR Biacore T200, peptide extended by five Gly and biotin at N-terminus on streptavidin chip SA (~1100 RU), BTLA 0-15 µM, HBS-EP pH 7.4, mean of four measurements, read-out: k1, association rate constant) of 76400 M⁻¹ s⁻¹, a Kd ([3]; SPR, Table S1 measurement No 1) of 13 nM and a Kd ([3]; SPR, Table S1 measurement No 2) of 149 nM. The Kd ([3]; SPR, Table S1 measurement No 3) was 217 nM, the Kd ([3]; SPR, Table S1 measurement No 4) was 30.6 nM and the Kd ([3]; SPR, biotin-Gly5 peptide on streptavidin chip, BTLA 0-15 µM, HBS-EP pH 7.4, mean of four measurements) was 102 nM. For the same molecule, the koff ([3]; SPR, biotin-Gly5 peptide on streptavidin chip, BTLA 0-15 µM, HBS-EP pH 7.4, mean of four measurements, read-out: k−1, dissociation rate constant) was 0.00332 s⁻¹, the “cell death of PBMC” value [4] was “did not find any significant increase in cell death” and the “toxicity on 293T cells” value [5] was “did not observe any toxicity”.

B1: HVEM: herpes virus entry mediator, transmembrane glycoprotein of the TNFR superfamily, ligand of BTLA (protein)
chain: LPSCKEDEYPVGSECCPKCSPGYRVKEACGELTGTVCEPCPPGTYIAHLNGLSKCLQCQMCDPAMGLRASRNCSRTENAVCGCSPGHFCIVQDGDHCAACRAYATSSPGQRVQKGGTESQDTLCQNCPPGTFSPNGTLEECQHQTKCSWLVTKAGAGTSSSHWV
modifications: left off: Fc (detected with anti-human Fc/IgG), end not stated, kept
notes: herpes virus entry mediator, transmembrane glycoprotein of the TNFR superfamily, ligand of BTLA
In the case of B1, the “k−1” value [6] is given as 0.12.

B2: HVEM (14–39) peptide (peptide, UniProt Q92956 52-77, looked up)
peptide: Ac-ESCPKCSPGYRVKEACGELTGTVCEP-NH2
modifications: disulfide 3-16, 6-24
notes: herpes virus entry mediator (HVEM), residues 14-39 of the numbering of the crystal structure PDB 2AW2, Cys15 replaced by serine; A C-terminal amide is likely (the scrambled peptide is printed as Ac-...-NH2); also called native HVEM (14–39) peptide; native peptide; source: synthetic peptide (solid-phase, Fmoc/tBu, RP-HPLC purified, disulfides formed stepwise)
B2: binds [7].

From paper PMC7013932, “Disulfide-Linked Peptides for Blocking BTLA/HVEM Binding” (International Journal of Molecular Sciences, 2020)
